Assay results taken from patent publication EP4324461A1, “(E)-N-CINAMOYLAMINOALKANOLES WITH MELANOGENESIS INHIBITORY ACTIVITY” (UNIWERSYTET JAGIELLONSKI, priority 2022, dated 2024).
Like-named read-outs stand apart in the source and are kept apart here.

Experiments:
tyrosinase = settings: cited from earlier work; for mechanism of tyrosinase inhibition: references [6], [7]
[1] = Lipophilicity coefficient RM0 by reversed phase thin layer chromatography; type: physicochemical; settings: RP-18 TLC, methanol / 100 mM phosphate buffer pH = 7.4
Description: Confirmation of the identity and purity of the obtained compounds consisted in the registration and interpretation of ^1H NMR and ^13C NMR spectra (the spectra were recorded using an ECZR 500 MHz (JEOL) series FT-NMR spectrophotometer), as well as the registration and interpretation of LC-MS spectra (the spectra were recorded using Acquita UPLC system (Waters) coupled with a Waters TQD mass spectrometer). The melting point was measured using the open capillary method in the IA9300 device (Electrothermal). The lipophilicity coefficient RM0 was determined by reversed phase thin layer chromatography. In the study, aluminum plates 20x20 cm covered with modified silica gel RP-18 F254 (Merck) were used as the solid phase. The mobile phase consisted of solutions of methanol and 100 mM phosphate buffer (pH = 7.4), characterized by a variable methanol content ranging from 95 to 65% (v/v). The tested compounds were dissolved in methanol to obtain solutions with a concentration of 1 mg/mL. Then, 5 µL of the solutions prepared in this way were transferred to the starting line on aluminum plates, which were then placed in chromatographic chambers previously saturated with mobile phase vapors for at least 1 hour. All activities, including the development of chromatograms, were carried out at room temperature. After developing the chromatograms to approximately 1-2 cm from the end of the plate, the plates were dried and then the distance traveled by the tested compounds was visualized under UV light (λ = 254 nm). The experiment was performed in duplicate for the specified conditions. For all samples, Rf was calculated according to the formula Rf = a/b, where a - the distance traveled by the tested compound, b - the distance traveled by the mobile phase. Then, the RM parameter was calculated for all samples according to the formula RM = log(1/Rf - 1), obtaining a linear relationship between the RM values and the methanol concentration in the mobile phase. The logP coefficient was also calculated using the following computer programs: ACD/ChemSketch 2020.1.2 and ChemDraw 20.0.0.41. Table 2. The physicochemical data of the compounds are presented below

S. typhimurium TA1535 = assay: Ames microplate test, TA1535; settings: without S9;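 note: bacteria exposed to compound 90 min at 37 °C, then kept 48 h at 37 °C with indicator medium in 384-well plates, scoring wells that turned yellow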
Description: (§3) The study used the Ames microplate test (Ames MPF™ Penta 2 by Xenometrix, Allschwil, Switzerland). Growth medium, exposure medium, indicator medium, positive controls, hepatic microsomal fraction, NADP, glucose-6-phosphate, Salmonella typhimurium and Escherichia coli strains were components of the purchased experimental kit. Bacteria were grown overnight in growth medium. They were then exposed to the test compound at the appropriate concentration in exposure medium without or with the rat microsomal fraction S9 in 24-well plates for 90 min at 37 °C with shaking. Then, indicator medium was added to the wells and pipetted into 384-well plates, which were incubated for 48 hours at 37 °C without shaking. Results were assessed by counting the wells in which the medium turned yellow for each experimental condition.

[2] = system: Chinese hamster ovary cell line (CHO-K1); assay: Cytotoxicity in CHO-K1 cells (MTT) before the micronucleus test; type: cell-based; settings: 24 hours
Description: The assay was performed using a Chinese hamster ovary cell line (CHO-K1) purchased from the American Type Culture Collection (ATCC). The cells were cultured in F-12K medium with the addition of 10% fetal bovine serum (FBS) and antibiotics (streptomycin/penicillin) in an incubator at 37 °C and 5% CO2 concentration). Before the actual micronucleus test, a cytotoxicity assessment was performed to ensure that the actual test was performed only at safe concentrations. For this purpose, cells were transferred to 96-well plates and incubated with the tested compounds for 24 hours. After this time, the MTT test was performed and cell viability was assessed in comparison to the control group (cells cultured with DMSO at the same concentration as in the case of the tested samples).

S. typhimurium TA100 = assay: Ames microplate test, TA100; type: cell-based, Salmonella typhimurium; settings: without S9;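 note: reference level is the mean solvent-control yellow wells plus SD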
Description: (§1) Bacteria were grown overnight in growth medium.
(§2) Table 9. Ames microplate test results.

E. coli WP2 = assay: Ames microplate test, E. coli WP2; settings: without S9;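 note: bacteria treated 90 min at 37 °C in 24-well plates, then indicator medium dispensed to 384-well plates and incubated 48 h before yellow-well counting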
Description: as §3

[3] = system: B16-F10 murine melanoma cell line; assay: Cytotoxicity in B16-F10 cells (MTT); type: cell-based; settings: 48 h
Description: In order to determine safe doses of compounds for testing the inhibition of melanogenesis in a murine melanoma cell line, cytotoxicity tests were performed. Cytotoxicity was determined by the colorimetric method using MTT ([3-(4,5-dimethyl-2-thiazolyl)-2,5-diphenyl-2H-tetrazolium bromide, Sigma M5655). For this purpose, cells were transferred to 96-well plates in an amount of 5000/well. After 24 h of culture in an incubator in F 10-Ham medium with 1% FBS, the tested compounds at various concentrations were added to the wells together with fresh medium. DMSO was added to the medium in a negative control. The MTT test was performed after further culture for 48 h. Then the medium was removed and the formed formazan crystals were dissolved in DMSO. The absorbance was measured at 570 nm in a plate reader and the result was compared to the control (DMSO), which was 100%. The percentage of viability was calculated using the formula: [AT/AC^∗100], where AT is the absorbance of the test sample, AC - absorbance of the control sample. Table 3. Results of inhibiting the activity of monophenolase […] tyrosinase and cytotoxicity testing in B16F10 cells for the described compounds.

tyrosinase from mushroom = assay: Inhibition of commercial mushroom tyrosinase (L-DOPA or L-tyrosine substrate); type: biochemical
Description: The following substrates were used for the enzymatic reaction: L-tyrosine and L-3,4-dihyroxyphenylalanine (L-DOPA). Both substrates were used in independent experiments. According to the literature, the use of L-DOPA enables the assessment of tyrosinase diphenolase activity, and L-tyrosine - the tyrosinase monophenolase activity. The determinations were performed in 96-well plates, in each well there was placed: 170 µL or 127.5 µL of 50 mM phosphate buffer (pH = 6.8) with tyrosinase (1U/well or 3U/well) and 10 µL of a solution of the tested compound in DMSO (the final concentration in the well was 500 µM, 250 µM or 125 µM). The negative control used 10 µL of pure solvent (DMSO). To initiate the reaction, an appropriate substrate was added: L-tyrosine (62.5 µL of solution in phosphate buffer) or L-DOPA (20 µL of solution in phosphate buffer). After a 25-minute incubation, the absorbance was measured at 475 nm using a microplate reader. The percentage of inhibition of tyrosinase activity was calculated using the formula: [(AC -AT)/AC] × 100, where AC - is the absorbance of the negative control, AT - is the absorbance of the sample containing the tested compound.

S. typhimurium TA98 = assay: Ames microplate test, TA98; type: cell-based, Salmonella typhimurium; settings: without S9;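 note: reference level is the mean solvent-control yellow wells plus SD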
Description: as §1, §2

S. typhimurium TA1537 = assay: Ames microplate test, TA1537; type: cell-based, Salmonella typhimurium; settings: without S9;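 note: reference level is the mean solvent-control yellow wells plus SD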
Description: as §1, §2

[4] = system: Chinese hamster ovary cell line (CHO-K1); assay: Genotoxicity in the micronucleus test in CHO-K1 cells; type: cell-based

## O=C(O)C=Cc1ccccc1 [Cinnamic acid]
tyrosinase
  mechanism of tyrosinase inhibition: non-competitive inhibitor

## O=C(O)C=Cc1ccc(Cl)cc1Cl [2,4-dichlorocinnamic acid]
tyrosinase; reference [7], read-out: IC50, tyrosinase inhibition
  IC50: 295 µM
tyrosinase
  mechanism of tyrosinase inhibition: reversible non-competitive mechanism

## CC(CO)NC(=O)/C=C/c1ccc(Cl)cc1 (centres unmarked) [Compound A-102, (2E)-3-(4-chlorophenyl)-N-(1-hydroxypropan-2-yl)prop-2-enamide]
[1]
  RM0: 2.12
S. typhimurium TA1535; 0.5 mM
  Increase in the number of yellow wells compared to the reference level: 0.55
S. typhimurium TA1535; 1.0 mM
  Increase in the number of yellow wells compared to the reference level: 0.14
S. typhimurium TA1535; 2.0 mM
  Increase in the number of yellow wells compared to the reference level: 0.89
[2]; 100 µM
  % Viability [mean]: 84.7%
[2]; 150 µM
  % Viability [mean]: 69.9%
[2]; 200 µM
  % Viability [mean]: 87.2%
S. typhimurium TA100; 0.5 mM
  Increase in the number of yellow wells compared to the reference level: 1.08
S. typhimurium TA100; 1.0 mM
  Increase in the number of yellow wells compared to the reference level: 0.75
S. typhimurium TA100; 2.0 mM
  Increase in the number of yellow wells compared to the reference level: 0.92
E. coli WP2; 0.5 mM
  Increase in the number of yellow wells compared to the reference level: 0.48
E. coli WP2; 1.0 mM
  Increase in the number of yellow wells compared to the reference level: 1.03
E. coli WP2; 2.0 mM
  Increase in the number of yellow wells compared to the reference level: 0.79
[3]; 150 µM
  Cytotoxicity study in B16F10 cells % viability: 80.6%
[3]; 200 µM
  Cytotoxicity study in B16F10 cells % viability: 83.5%
[3]; 250 µM
  Cytotoxicity study in B16F10 cells % viability: 75.7%
Tyrosinase from mushroom; L-DOPA
  Tyrosinase inhibition with L-DOPA [%]: 53.02±1.99% (500 µM)
Tyrosinase from mushroom; L-DOPA, read-out: Tyrosinase inhibition with L-DOPA, IC50
  IC50: 440 µM
Tyrosinase from mushroom; L-tyrosine
  Tyrosinase inhibition with L-tyrosine [%]: 75.45±1.80% (500 µM)
Tyrosinase from mushroom; L-tyrosine, read-out: Tyrosinase inhibition with L-tyrosine, IC50
  IC50: 164 µM
S. typhimurium TA98; 0.5 mM
  Increase in the number of yellow wells compared to the reference level: 0.24
S. typhimurium TA98; 1.0 mM
  Increase in the number of yellow wells compared to the reference level: 0.24
S. typhimurium TA98; 2.0 mM
  Increase in the number of yellow wells compared to the reference level: 0.35
S. typhimurium TA1537; 0.5 mM
  Increase in the number of yellow wells compared to the reference level: 0.33
S. typhimurium TA1537; 1.0 mM
  Increase in the number of yellow wells compared to the reference level: 0.00
S. typhimurium TA1537; 2.0 mM
  Increase in the number of yellow wells compared to the reference level: 1.00
[4]; 100 µM
  DB (dicentric bridges in 1000 binucleate cells): 4.0 ± 2.8
  MN (number of micronuclei in 1000 binucleate cells): 10.5 ± 2.1
  NB (nuclear buds in 1000 binucleate cells): 5.5 ± 2.1
  NDI (nuclear division index): 1.54
[4]; 150 µM
  DB (dicentric bridges in 1000 binucleate cells): 2.5 ± 2.1
  MN (number of micronuclei in 1000 binucleate cells): 6.5 ± 2.1
  NB (nuclear buds in 1000 binucleate cells): 6.5 ± 2.1
  NDI (nuclear division index): 1.54
[4]; 200 µM
  DB (dicentric bridges in 1000 binucleate cells): 3.0 ± 1.4
  MN (number of micronuclei in 1000 binucleate cells): 8.5 ± 0.7
  NB (nuclear buds in 1000 binucleate cells): 4.0 ± 1.4
  NDI (nuclear division index): 1.60
